Tests used:
[1] = stability of the tablet / of efletirizine with pseudoephedrine; type: physicochemical; settings: efletirizine and pseudoephedrine formulated together in the same segment
histamine H1-receptor = histamine H1-receptor (Homo sapiens, UniProt P35367); settings: in vitro; cited from earlier work
histamine H1-receptor, sequence (P35367 whole entry, species assumed): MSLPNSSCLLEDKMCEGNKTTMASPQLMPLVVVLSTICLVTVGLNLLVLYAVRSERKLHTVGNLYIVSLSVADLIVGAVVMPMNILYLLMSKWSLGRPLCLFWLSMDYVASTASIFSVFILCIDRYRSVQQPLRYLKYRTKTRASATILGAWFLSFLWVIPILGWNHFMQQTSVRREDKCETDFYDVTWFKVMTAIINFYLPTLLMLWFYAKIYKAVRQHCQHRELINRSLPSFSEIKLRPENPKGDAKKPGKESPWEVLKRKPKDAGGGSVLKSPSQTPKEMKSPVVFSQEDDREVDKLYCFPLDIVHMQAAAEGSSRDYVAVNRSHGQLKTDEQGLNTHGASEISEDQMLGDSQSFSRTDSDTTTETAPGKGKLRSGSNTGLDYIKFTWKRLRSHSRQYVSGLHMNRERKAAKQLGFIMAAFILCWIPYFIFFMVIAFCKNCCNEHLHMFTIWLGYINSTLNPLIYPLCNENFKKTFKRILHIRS

degradation of efletirizine [1]: a degradation of efletirizine appeared
Structure (SMILES): O=C(O)COCCN1CCN(C(c2ccc(F)cc2)c2ccc(F)cc2)CC1 [Efletirizine, 2-{2-[4-[bis(4-fluorophenyl)methyl)-1-piperazinyl]ethoxy}acetic acid]
affinity and selectivity for H1-receptors (histamine H1-receptor): high affinity and selectivity
